The values that follow come from patent publication US20100035259A1, “BIOMARKERS AND METHODS FOR DETERMINING SENSITIVITY TO VASCULAR ENDOTHELIAL GROWTH FACTOR RECEPTOR-2 MODULATORS” (Bristol-Myers Squibb Company, priority 2007, published 2010).

One assay relates to mouse stromal tissues. In words: Transcriptional profiling of GEO xenograft tumors on mouse 430A arrays (genes in mouse stromal tissues). The note with it: for ESM1 level: after 2 hours treatment; for expression value of ESM1 in stromal tissue: treatment at 17 Days, in comparison with the control (FIG. 1). Format: in vivo. The method, then: (§1) Tumors were propagated in nude mice as subcutaneous (sc) implants using human GEO colon tumor cell lines. Tumors were maintained in nude mice by serial passage. Treated animals were checked daily for treatment related toxicity/mortality. Each group of animals was weighed before the initiation of treatment (Wt1) and then again following the last treatment dose (Wt2). The difference in body weight (Wt2-Wt1) provided an overt measure of treatment-related toxicity. […] Tumor response was determined by measurement of tumors with a caliper twice a week, until the tumors reached a predetermined target size. Animals that were distributed to various treatment and control groups during the study were eventually sacrificed to obtain tumor and blood samples for genomic and protein analysis (Table 1).
(§2) Mouse GEO xenograft tumors, treated and non-treated, were surgically removed at appropriate time points and split into two halves. One half of the tumor was mixed in a vial of 10% formalin to be used for IHC and the other half was mixed in 1.0 ml of RNAlater™ RNA Stabilization Reagent (Ambion, Inc., Austin, Tex.) held at room temperature for 30-minutes then stored at −80° C. Total RNA was extracted from the tumor samples using the RNeasy Kit™ (Qiagen, Valencia Calif.). A least 1 μg total RNA with a 260/280 ratio >1.8 by spectrophotometry (DU640 UV, Beckman Coulter, Fullerton, Calif.) was required for transcriptional profiling. Briefly, the tumor samples were homogenized in a lysis-binding solution supplied by Qiagen. An equal volume of ethanol was mixed into each sample, the mixture was passed through the filter cartridges provided, and the rest of the extraction protocol was followed (Ambion). RNA yield and quality were assessed on a standard 1% agarose gel. […] RNA samples were stored at −80° C.
(§3) Transcriptional profiling was performed on the RNA obtained from the GEO xenograft tumor samples. The Affymetrix GeneChip system (Affymetrix, Santa Clara, Calif.) was used for hybridization and scanning of the human U133A and mouse 430A arrays. Generation of cRNA followed a standard T7 amplification protocol. Total RNA was reverse-transcribed with SuperScript II™ (Gibco, Carlsbad, Calif.) in the presence of T7-(dT)24 primer to generate first strand cDNA. A second-strand cDNA synthesis was performed in the presence of DNA Polymerase I, DNA ligase, and RNase H (Gibco). The resulting double-stranded cDNA was blunt-ended using T4 DNA polymerase. This double-stranded cDNA was then transcribed into cRNA in the presence of biotin-ribonucleotides using the BioArray High Yield RNA transcript labeling kit (Enzo Life Sciences, Farmingdale, N.Y.). The amplified, biotin-labeled cRNA was purified using Qiagen RNeasy™ columns (Qiagen Sciences), quantified and fragmented at 94° C. for 35 minutes in the presence of fragmentation buffer (1×). Fragmented cRNA was hybridized to the Affymetrix U113A and 430A arrays overnight at 42° C. The arrays were then placed in the fluidics stations for staining and washing as recommended by Affymetrix protocols. The chips were scanned and raw intensity values were generated for each probe on the arrays.
(§4) 20 HG-U133A2 chips were normalized by the RMA (Robust Multi-array Analysis) method as described by R. A. Irizarry et al., Nucleic Acids Res., February 15; 31(4):e15 (2003). The same normalization was done for the 20 Mouse430A2 chips.
(§5) Differentially expressed genes were defined as: (i) FDR (false discovery rate) q value less than 0.05 when comparing specific compound treatment at single time point to the control (no treatment) at 0 time point and (ii) fold change bigger than 2 (log2Foldchange>1 or <−1) when compared specific treatment to control.

Another assay concerns the target VEGFR-2 (Homo sapiens, UniProt P35968). In words: Inhibition of VEGFR-2. Format: biochemical.
In a further assay the target is FGFR-2 (Homo sapiens, UniProt P21802). Put plainly: Inhibition of FGFR-2. Format: biochemical.
Assay [1] has as its system human GEO colon tumor xenograft tumor tissues. Put plainly: Transcriptional profiling of GEO xenograft tumors on human U133A arrays (genes in tumor tissues). Format: in vivo. The method, then: as §1, §2, §3, §4, §5
(In xenograft studies the graft and the host belong to different species.)

Another assay deals with FGFR-1 (Homo sapiens, UniProt P11362). In words: Inhibition of FGFR-1. Format: biochemical.
Another assay concerns human GEO colon tumor. In words: Tumor growth in GEO colon cancer model (caliper measurement). The format is in vivo, nude mice. The note with it: compared to bevacizumab. The method, then: as §1
The mark [2] stands for this setting: mouse stroma tissue, 17 days time point.
[3] abbreviates: tumor xenografts, after 17 days.
The mark [4] stands for this setting: xenograft tumor tissues, 17 days (FIG. 4).

FGFR-2, sequence (P21802 22-821, species assumed): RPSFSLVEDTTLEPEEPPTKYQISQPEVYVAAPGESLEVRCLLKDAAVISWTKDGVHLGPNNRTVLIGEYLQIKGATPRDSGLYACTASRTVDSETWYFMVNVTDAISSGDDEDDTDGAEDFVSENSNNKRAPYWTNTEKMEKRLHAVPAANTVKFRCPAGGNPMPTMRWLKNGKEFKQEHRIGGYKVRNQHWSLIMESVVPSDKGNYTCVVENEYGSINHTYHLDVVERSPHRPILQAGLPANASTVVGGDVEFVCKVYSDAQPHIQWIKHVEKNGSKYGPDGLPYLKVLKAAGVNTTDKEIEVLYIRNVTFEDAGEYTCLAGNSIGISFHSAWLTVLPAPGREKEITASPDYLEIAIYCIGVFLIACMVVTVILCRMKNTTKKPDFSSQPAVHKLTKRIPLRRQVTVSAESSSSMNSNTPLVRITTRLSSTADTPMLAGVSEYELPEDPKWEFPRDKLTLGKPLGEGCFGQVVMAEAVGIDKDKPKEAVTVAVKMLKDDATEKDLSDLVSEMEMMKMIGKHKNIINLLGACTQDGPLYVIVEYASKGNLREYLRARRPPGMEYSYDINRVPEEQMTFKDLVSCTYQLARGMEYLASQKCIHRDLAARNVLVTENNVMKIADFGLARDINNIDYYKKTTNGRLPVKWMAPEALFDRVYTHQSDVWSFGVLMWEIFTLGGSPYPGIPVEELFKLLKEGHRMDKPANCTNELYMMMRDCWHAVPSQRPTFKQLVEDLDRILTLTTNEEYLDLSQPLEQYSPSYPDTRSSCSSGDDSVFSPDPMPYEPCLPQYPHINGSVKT
VEGFR-2, sequence (P35968 20-1356, species assumed): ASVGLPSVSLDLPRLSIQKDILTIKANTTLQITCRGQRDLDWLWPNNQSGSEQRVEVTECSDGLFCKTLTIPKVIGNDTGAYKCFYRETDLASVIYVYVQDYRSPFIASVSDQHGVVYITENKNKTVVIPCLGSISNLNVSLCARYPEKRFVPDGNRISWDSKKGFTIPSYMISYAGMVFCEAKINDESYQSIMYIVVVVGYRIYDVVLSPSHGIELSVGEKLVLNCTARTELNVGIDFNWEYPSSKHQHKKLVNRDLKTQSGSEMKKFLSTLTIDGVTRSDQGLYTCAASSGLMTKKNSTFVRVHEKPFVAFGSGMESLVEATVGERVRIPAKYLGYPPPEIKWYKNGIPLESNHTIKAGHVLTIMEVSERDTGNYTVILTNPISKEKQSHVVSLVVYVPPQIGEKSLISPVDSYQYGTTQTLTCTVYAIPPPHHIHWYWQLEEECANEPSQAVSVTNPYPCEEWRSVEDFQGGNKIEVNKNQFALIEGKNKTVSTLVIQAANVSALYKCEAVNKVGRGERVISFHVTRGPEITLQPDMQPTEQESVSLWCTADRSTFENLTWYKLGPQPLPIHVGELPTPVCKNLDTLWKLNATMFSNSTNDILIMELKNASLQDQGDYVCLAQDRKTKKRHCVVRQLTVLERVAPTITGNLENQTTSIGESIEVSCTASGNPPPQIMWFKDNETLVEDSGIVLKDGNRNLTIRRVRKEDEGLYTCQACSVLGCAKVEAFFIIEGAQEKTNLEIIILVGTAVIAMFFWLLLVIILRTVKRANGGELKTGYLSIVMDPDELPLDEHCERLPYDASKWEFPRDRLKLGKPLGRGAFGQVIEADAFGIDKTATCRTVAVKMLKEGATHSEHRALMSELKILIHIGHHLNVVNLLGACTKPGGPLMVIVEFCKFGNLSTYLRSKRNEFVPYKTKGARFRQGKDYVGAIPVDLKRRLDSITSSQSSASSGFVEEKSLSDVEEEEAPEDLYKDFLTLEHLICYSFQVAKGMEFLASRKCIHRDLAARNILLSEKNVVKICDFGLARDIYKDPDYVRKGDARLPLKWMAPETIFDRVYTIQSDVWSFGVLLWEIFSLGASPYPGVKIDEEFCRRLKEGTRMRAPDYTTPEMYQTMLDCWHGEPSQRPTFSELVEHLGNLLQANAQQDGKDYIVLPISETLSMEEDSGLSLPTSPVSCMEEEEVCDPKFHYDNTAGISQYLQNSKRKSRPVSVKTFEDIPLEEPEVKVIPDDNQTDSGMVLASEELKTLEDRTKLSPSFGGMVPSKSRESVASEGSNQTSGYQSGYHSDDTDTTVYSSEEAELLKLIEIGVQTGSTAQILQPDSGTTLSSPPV
FGFR-1, sequence (P11362 22-822, species assumed): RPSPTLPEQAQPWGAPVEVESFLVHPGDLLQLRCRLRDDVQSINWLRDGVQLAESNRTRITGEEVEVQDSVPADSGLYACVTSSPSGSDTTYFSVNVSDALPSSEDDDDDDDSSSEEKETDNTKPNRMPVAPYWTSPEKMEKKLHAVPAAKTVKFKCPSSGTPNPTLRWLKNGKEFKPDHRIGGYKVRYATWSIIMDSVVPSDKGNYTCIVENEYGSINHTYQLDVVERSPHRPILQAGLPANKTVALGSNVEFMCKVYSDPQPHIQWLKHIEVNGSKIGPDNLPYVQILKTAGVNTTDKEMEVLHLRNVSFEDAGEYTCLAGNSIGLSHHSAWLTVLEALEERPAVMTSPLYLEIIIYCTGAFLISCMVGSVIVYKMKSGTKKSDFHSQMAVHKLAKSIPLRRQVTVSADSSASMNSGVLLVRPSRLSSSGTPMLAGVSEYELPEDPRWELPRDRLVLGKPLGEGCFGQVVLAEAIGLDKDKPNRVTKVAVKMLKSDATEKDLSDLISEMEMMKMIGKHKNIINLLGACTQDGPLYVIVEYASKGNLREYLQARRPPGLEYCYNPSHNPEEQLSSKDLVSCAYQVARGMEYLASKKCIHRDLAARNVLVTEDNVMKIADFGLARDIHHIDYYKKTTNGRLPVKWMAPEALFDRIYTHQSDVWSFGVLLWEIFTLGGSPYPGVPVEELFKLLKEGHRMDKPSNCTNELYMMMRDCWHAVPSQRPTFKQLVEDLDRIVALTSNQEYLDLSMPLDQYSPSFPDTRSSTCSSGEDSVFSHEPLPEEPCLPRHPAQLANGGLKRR

As to “bevacizumab: AVASTIN (bevacizumab), indirectly inhibits the VEGFR-2 signaling pathway by preventing VEGF ligand binding [reference compound]”, in the assay with mouse stromal tissues, the ESM1 level entry was “decreasing trend” and the “expression value of ESM1 in stromal tissue” value is “significantly decreases”.
Regarding `Cc1cc2c(F)c(Oc3ncnn4cc(OC[C@@H](C)OC(=O)[C@H](C)N)c(C)c34)ccc2[nH]1` [compound 1, [(1R), 2S]-2-Aminopropionic acid 2-[4-(4-fluoro-2-methyl-1H-indol-5-yloxy)-5-methylpyrrolo[2,1-f][1,2,4]triazin-6-yloxy]-1-methylethyl ester], the “inhibition of VEGFR-2” value against VEGFR-2 is “potent inhibition”. Besides, at FGFR-2, the “inhibition of FGFR-2” value is recorded as “inhibition”. Besides, in the assay on mouse stromal tissues, the ESM1 level entry is on record as “decreasing trend” and the “expression value of ESM1 in stromal tissue” value was “significantly decreases”. In the assay on mouse stromal tissues (setting [2]), the “expression level of S100A8” value was “up-regulated” and the “expression level of S100A9” value is recorded as “up-regulated”. The CD14 expression entry with mouse stromal tissues (upon treatment, 17 days) was “elevated”. For the same compound, the CEACAM1 expression entry in assay [1] (3 probe sets (206576_s_at, 211889_x_at, 209498_at), treatment at 17 days) is listed as “significant increase”. Moreover, the “expression level of RAGE, up-regulated” value in assay [1] (human xenograft tissue, 17 days, FDR q=0.002) is listed as 1.9 fold. Also, the AKAP7 inhibited in assay [1] (treatment at 17 days, FDR q<0.008 (FIG. 4)) came to 3.5 fold. For the same compound, the EMP1 up-regulated in assay [1] (tumor tissue, 17 Days, significant FDR q values (FIG. 3)) came to 3.9 fold. Further, in assay [1] (setting [3]), the FGF-8 levels result is given as “elevated”, the FGF-18 levels result is on record as “elevated”, the FGF-22 levels result is reported as “elevated” and the FGFR-2 levels result is “elevated”. Also, the FGF-2 levels entry in assay [1] (tumor xenografts, after 17 days, low expression) is given as “didn't change much”. In assay [1] (setting [4]), the “Expression of Collagen 18” value was “up-regulated”, the VEGF expression entry is “up-regulated” and the VEGFB expression entry is “up-regulated”. In addition, the “inhibition of FGFR-1” value against FGFR-1 is “inhibition”. In addition, in the assay with human GEO colon tumor, the “ability to inhibit tumor growth” value is recorded as “increase affect on the ability to inhibit tumor growth when compared to bevacizumab”.
